Assay results from US10208074B2, “Pyrazole compounds and method for making and using the compounds” (Rigel Pharmaceuticals, Inc., priority 2015, dated 2019).
Counter-ions that a name gives are not always drawn. Like-named read-outs stand apart in the source and are kept apart here.

Key:
IL-23 (p19/p40) = assay: IL23-p19 ELISA, Dendritic, LPS (compound screening using DC cells); type: cell-based, Human
In short: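 Human PBMC-derived dendritic cells (7 d GM-CSF 100 ng/ml + IL-4 20 ng/ml), primed 24 h with IFNγ 50 ng/ml, pre-incubated 1 h with compound, then stimulated 18 h with LPS 1 μg/ml. Supernatant IL-23 measured by p19-capture/p40-detection chemiluminescent ELISA; CellTiter Glo checks cytotoxicity.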

IL-23p19 = assay: LPS induced IL23p19 in THP-1 cells (with IFNγ primed) assay; type: cell-based, Human
In short: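 THP-1 cells primed ~18 h with IFNγ (50 ng/mL), pre-incubated 1 h with compound at 37 °C, then stimulated 18 h with LPS (1 ug/mL final). Supernatant IL-23p19 measured by sandwich ELISA with chemiluminescent read-out; EC50 from curve fitting. Toxicity checked on the remaining cells by Cell Titer Glo.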

[1] = Homo sapiens, 18 h, PBMC-derived DC cells, IFNγ primed, LPS 1 μg/ml, 18 hours, 10 pt, read-out: IL23-p19 ELISA, Dendritic, LPS, 10 pt, EC50
[2] = Homo sapiens, THP-1, 18 h, THP-1 cells, IFNγ primed, LPS 1 ug/mL, 18 hours, 10 pt, read-out: IL23-p19 ELISA, THP1-IFNy, LPS, 10 pt EC50
[3] = PBMC-derived DC cells, IFNγ primed, LPS 1 μg/ml, 18 hours, 10 pt, read-out: IL23-p19 ELISA, Dendritic, LPS, 10 pt, EC50
[4] = THP-1 cells, IFNγ primed, LPS 1 ug/mL, 18 hours, 10 pt, read-out: IL23-p19 ELISA, THP1-IFNy, LPS, 10 pt EC50

| Compound | EC50 (IL-23 (p19/p40); [1]) | EC50 (IL-23p19; [2]) | further results |
| --- | --- | --- | --- |
| CCO[C@H]1C[C@@H](n2cc(NC(=O)c3csc(-c4cnn(COP(=O)(O)O)c4)n3)c(-c3ccccn3)n2)C1 [II-80, (4-(4-((1-((1,3-cis)-3-ethoxycyclobutyl)-3-(pyridin-2-yl)-1H-pyrazol-4-yl)carbamoyl)thiazol-2-yl)-1H-pyrazol-1-yl)methyl phosphate bis-ammonium salt] | – | – | EC50 (IL-23 (p19/p40); PBMC-derived DC cells, IFNγ primed, LPS 1 μg/ml, 18 hours, 10 pt, phosphate bis-ammonium salt, read-out: IL23-p19 ELISA, Dendritic, LPS, 10 pt, EC50): 0.247 µM; EC50 (IL-23p19; THP-1 cells, IFNγ primed, LPS 1 ug/mL, 18 hours, 10 pt, phosphate bis-ammonium salt, read-out: IL23-p19 ELISA, THP1-IFNy, LPS, 10 pt EC50): 0.0495 µM |
| CCO[C@H]1C[C@@H](n2cc(NC(=O)c3csc(-c4cnn(COP(=O)(O)O)c4)n3)c(-c3ccccn3)n2)C1 [II-81, (4-(4-((1-((1,3-cis)-3-ethoxycyclobutyl)-3-(pyridin-2-yl)-1H-pyrazol-4-yl)carbamoyl)thiazol-2-yl)-1H-pyrazol-1-yl)methyl phosphate bis-lysine salt] | – | – | EC50 (IL-23 (p19/p40); [3]): 0.171 µM; EC50 (IL-23p19; [4]): 0.019 µM |
| CCO[C@H]1C[C@@H](n2cc(NC(=O)c3csc(-c4cnn(COP(=O)(O)O)c4)n3)c(-c3ccccn3)n2)C1 [II-82, (4-(4-((1-((1,3-cis)-3-ethoxycyclobutyl)-3-(pyridin-2-yl)-1H-pyrazol-4-yl)carbamoyl)thiazol-2-yl)-1H-pyrazol-1-yl)methyl phosphate bis-arginine salt] | – | – | EC50 (IL-23 (p19/p40); Homo sapiens, 18 h, read-out: IL23-p19 ELISA, Dendritic, LPS, 10 pt, EC50 (μM)): 0.176 µM; EC50 (IL-23p19; Homo sapiens, THP-1, 18 h, read-out: IL23-p19 ELISA, THP1-IFNy, LPS, 10 pt EC50 (μM)): 0.0387 µM |
| CCO[C@H]1C[C@@H](n2cc(NC(=O)c3csc(-c4cnn(COP(=O)(O)O)c4)n3)c(-c3ccccn3)n2)C1 [II-83, (4-(4-((1-((1,3-cis)-3-ethoxycyclobutyl)-3-(pyridin-2-yl)-1H-pyrazol-4-yl)carbamoyl)thiazol-2-yl)-1H-pyrazol-1-yl)methyl dihydrogen phosphate] | – | – | EC50 (IL-23 (p19/p40); [3]): 0.241 µM; EC50 (IL-23p19; [4]): 0.0863 µM |
| CCO[C@H]1C[C@@H](n2cc(NC(=O)c3csc(-c4cnn(COP(=O)(O)O)c4)n3)c(-c3ccccn3)n2)C1 [II-84, (4-(4-((1-((1,3-cis)-3-ethoxycyclobutyl)-3-(pyridin-2-yl)-1H-pyrazol-4-yl)carbamoyl)thiazol-2-yl)-1H-pyrazol-1-yl)methyl phosphate Tris salt] | – | – | EC50 (IL-23 (p19/p40); [3]): 0.304 µM; EC50 (IL-23p19; [4]): 0.085 µM |
| CCO[C@H]1C[C@@H](n2cc(NC(=O)c3csc(-c4cnn(COP(=O)(O)O)c4)n3)c(-c3ccccn3)n2)C1 [II-85, (4-(4-((1-((1,3-cis)-3-ethoxycyclobutyl)-3-(pyridin-2-yl)-1H-pyrazol-4-yl)carbamoyl)thiazol-2-yl)-1H-pyrazol-1-yl)methyl phosphate triethylamine salt] | – | – | EC50 (IL-23 (p19/p40); [3]): 0.287 µM; EC50 (IL-23p19; [4]): 0.0499 µM |
| O=C(Nc1cn(C(F)F)nc1-c1ccccn1)c1csc(-c2cn[nH]c2)n1 [II-88, N-(1-(difluoromethyl)-3-(pyridin-2-yl)-1H-pyrazol-4-yl)-2-(1H-pyrazol-4-yl)thiazole-4-carboxamide] | 0.39 µM | 0.0965 µM | – |
| CCO[C@H]1C[C@@H](n2cc(NC(=O)c3csc(-c4cn[nH]c4)n3)c(-c3cccc(C(F)(F)F)n3)n2)C1 [II-90, N-(1-((1,3-cis)-3-ethoxycyclobutyl)-3-(6-(trifluoromethyl)pyridin-2-yl)-1H-pyrazol-4-yl)-2-(1H-pyrazol-4-yl)thiazole-4-carboxamide] | 0.218 µM | 0.176 µM | – |
| O=C(Nc1cn(C(F)F)nc1-c1ccccn1)c1csc(-c2c[nH]nc2C(F)(F)F)n1 [II-95, N-(1-(difluoromethyl)-3-(pyridin-2-yl)-1H-pyrazol-4-yl)-2-(3-(trifluoromethyl)-1H-pyrazol-4-yl)thiazole-4-carboxamide] | 6.23 µM | 2.25 µM | – |
| Cc1n[nH]cc1-c1nc(C(=O)Nc2cn(C(F)F)nc2-c2ccccn2)cs1 [II-96, N-(1-(difluoromethyl)-3-(pyridin-2-yl)-1H-pyrazol-4-yl)-2-(3-methyl-1H-pyrazol-4-yl)thiazole-4-carboxamide] | 0.457 µM | 0.0837 µM | – |
| CCO[C@H]1C[C@@H](n2cc(NC(=O)c3csc(-c4c[nH]nc4C)n3)c(-c3cccc(C(F)(F)F)n3)n2)C1 [II-99, N-(1-((1,3-cis)-3-ethoxycyclobutyl)-3-(6-(trifluoromethyl)pyridin-2-yl)-1H-pyrazol-4-yl)-2-(3-methyl-1H-pyrazol-4-yl)thiazole-4-carboxamide] | 0.989 µM | 0.42 µM | – |
| CCOCCn1cc(NC(=O)c2csc(-c3cn[nH]c3)n2)c(-c2nccs2)n1 [II-109, N-(1-(2-ethoxyethyl)-3-(thiazol-2-yl)-1H-pyrazol-4-yl)-2-(1H-pyrazol-4-yl)thiazole-4-carboxamide] | 0.327 µM | 0.14 µM | – |

More lines, in order of falling EC50 (IL-23 (p19/p40); [1]), values ahead:

| EC50 (IL-23 (p19/p40); [1]) | EC50 (IL-23p19; [2]) | Compound | further results |
| --- | --- | --- | --- |
| 5.78 µM | 0.137 µM | CCO[C@H]1C[C@@H](n2cc(NC(=O)c3csc(-c4cn[nH]c4)n3)c(-c3ccc(C(F)(F)F)cn3)n2)C1 [II-86, N-(1-((1,3-cis)-3-ethoxycyclobutyl)-3-(5-(trifluoromethyl)pyridin-2-yl)-1H-pyrazol-4-yl)-2-(1H-pyrazol-4-yl)thiazole-4-carboxamide] | – |
| 2.31 µM | 1.5 µM | COc1ccc(Cn2cc(-c3nc(C(=O)Nc4cn(CC(O)(C(F)(F)F)C(F)(F)F)nc4-c4ccccn4)cs3)cn2)cc1 [II-107, 2-(1-(4-methoxybenzyl)-1H-pyrazol-4-yl)-N-(3-(pyridin-2-yl)-1-(3,3,3-trifluoro-2-hydroxy-2-(trifluoromethyl)propyl)-1H-pyrazol-4-yl)thiazole-4-carboxamide] | – |
| 1.13 µM | 0.589 µM | CCO[C@H]1C[C@@H](n2cc(NC(=O)c3csc(-c4cn[nH]c4)n3)c(-c3ncccc3C(F)(F)F)n2)C1 [II-89, N-(1-((1,3-cis)-3-ethoxycyclobutyl)-3-(3-(trifluoromethyl)pyridin-2-yl)-1H-pyrazol-4-yl)-2-(1H-pyrazol-4-yl)thiazole-4-carboxamide] | – |
| 0.226 µM | 0.0561 µM | Cc1n[nH]cc1-c1nc(C(=O)Nc2cn(CC(F)(F)F)nc2-c2ccccn2)cs1 [II-100, 2-(3-methyl-1H-pyrazol-4-yl)-N-(3-(pyridin-2-yl)-1-(2,2,2-trifluoroethyl)-1H-pyrazol-4-yl)thiazole-4-carboxamide] | – |
| 0.0554 µM | 0.0619 µM | CCO[C@H]1C[C@@H](n2cc(NC(=O)c3csc(-c4cn[nH]c4)n3)c(-c3ncccn3)n2)C1 [II-102, N-(1-((1,3-cis)-3-ethoxycyclobutyl)-3-(pyrimidin-2-yl)-1H-pyrazol-4-yl)-2-(1H-pyrazol-4-yl)thiazole-4-carboxamide] | – |
| 0.0355 µM | 0.023 µM | O=C(Nc1cn([C@H]2C[C@@H](O)C2)nc1-c1cnccn1)c1csc(-c2cn[nH]c2)n1 [II-101, N-(1-((1,3-cis)-3-hydroxycyclobutyl)-3-(pyrazin-2-yl)-1H-pyrazol-4-yl)-2-(1H-pyrazol-4-yl)thiazole-4-carboxamide] | – |
| 0.0343 µM | 0.0651 µM | O=C(Nc1cn(C2CCOCC2)nc1-c1nccs1)c1csc(-c2cn[nH]c2)n1 [II-111, 2-(1H-pyrazol-4-yl)-N-(1-(tetrahydro-2H-pyran-4-yl)-3-(thiazol-2-yl)-1H-pyrazol-4-yl)thiazole-4-carboxamide] | – |
| 0.0333 µM | 0.311 µM | O=C(Nc1cn(CC(F)(F)F)nc1-c1ccccn1)c1csc(-c2cn[nH]c2)n1 [II-94, 2-(1H-pyrazol-4-yl)-N-(3-(pyridin-2-yl)-1-(2,2,2-trifluoroethyl)-1H-pyrazol-4-yl)thiazole-4-carboxamide] | – |
| 0.0152 µM | 0.0758 µM | C[C@]1(O)C[C@H](n2cc(NC(=O)c3csc(-c4cn[nH]c4)n3)c(-c3ccccn3)n2)C1 [II-79, N-(1-((1r,3r)-3-hydroxy-3-methylcyclobutyl)-3-(pyridin-2-yl)-1H-pyrazol-4-yl)-2-(1H-pyrazol-4-yl)thiazole-4-carboxamide] | – |
